The source of these data is US11213815B2, “Netwell assay plate system” (VIB VZW, priority 2016, dated 2022).

Molecules are shown by their SMILES.

The data set has as its system Arabidopsis plants. The data set is described as follows: Arabidopsis netwell growth assay (rosette area over time, plants grown in soil in the multiwell plate system). It counts as in vivo. On the procedure:
In the Arabidopsis […] growth assay, plants were grown in soil inside a 24 well […] insert plate comprising a polystyrene porous membrane with a pore size of about 420 μm, which is positioned into a 24 well irrigation plate (FIG. 1, 2). Before sowing, seeds were vernalized in water at 4 degrees Celsius for two days. Afterwards, the […] insert plate was filled with fine potting soil, or optionally with soil mixed with sand (ratio 3:1). During this process the soil (or soil with sand) was compressed two times (or optionally three times for soil/sand) by applying a light pressure onto the individual […]. A “humidity control” soil sample was taken for determination of the initial soil water humidity (see later). Next, one mL of water was added to each of the wells of the irrigation plates. The […] insert plates were positioned inside the irrigation plates and the mounted plates were sealed with (plastic) tape surrounding the edges, to prevent excessive water evaporation from the boundary wells as compared to the center wells of the 24 well plate. This was a crucial step to avoid growth differences between plants in boundary and center wells, and to obtain reproducible results. Next, the weight of the combined insert and irrigation plates was recorded. When seeds were used as samples, during the sowing of the Arabidopsis seeds, one seed was distributed in each of the wells. For germination, the […] insert plates were covered with a standard multiwell cover plate which was sealed with parafilm and was placed inside a plant growth chamber. After three days, the covers were removed and the plants continued to grow at normal atmospheric conditions. At 7 days after sowing, or when the appropriate plant stage was reached (e.g. 7 and 10 or 5 and 7 days), the plants received a (chemical) treatment. Therefore, 0.5 (optionally 0.8 mL for soil with sand) of a (chemical-containing) solution was added to each of the wells via the corresponding access holes. Each plant sample receives the supplied (same) amount of (chemical) solution. In the days following the treatment, the plants were again irrigated with water to maintain a soil water humidity of 3.5 (or optionally 0.95 for soil with sand) (see below). In the 24 well format the growth of Arabidopsis plants was typically followed for about 15 days, during which image analysis procedures were used to follow the growth of the individual plant samples over time and to quantify the growth response of these plants in response to the specific (chemical) treatments. The initial soil water humidity was determined by first drying the “humidity control” soil sample in an oven at 60 degrees Celsius, to obtain the “dry weight”. Next, taking into account the weight of the empty irrigation plates, the empty […] insert plates, and the current weight of the combined insert and irrigation plates, water was added to each of the wells to reach a “soil water humidity” of “3.5 gram water per gram of dry soil” or “3.5” (optionally, when soil with sand was used: “0.95 gram water per gram of dry soil (with sand)” was used as initial soil water humidity value). Water was added into the irrigation plate wells through the access holes present in the corresponding […] insert plate wells using a repetition pipet. Due to equal evaporation of water from individual wells within one insert plate, each well of the irrigation plate received the same amount of water, rounded to 100 μL. The water, added to the wells in the irrigation plates, is taken up by the soil present in the hollow chambers of the […] insert plate wells, through the mesh by capillary forces (FIG. 3B). This irrigation was repeated on a daily basis to prevent excessive drying of the soil in the wells. This watering regime is suitable for frequently used Arabidopsis growth conditions, but can be altered and further optimized when a plant drought-stress response is the desired testing regime. Plants were grown as described in the above […] assay method. […]

As for `CC(C)(C)[C@@H](O)[C@@H](Cc1ccc(Cl)cc1)n1cncn1` (racemic) [Paclobutrazol], under “Example 6, 0.8 mL at 7 and 10 DAS, Paclobutrazol 10, 20, 100 μM vs 0.1% DMSO, FIG. 8B”, the “effect on plant growth (rosette area), dose response” value is “plant growth retarding effect”.
For `c1ccc(CNc2ncnc3nc[nH]c23)cc1` [BAP, 6-Benzylaminopurine], the “effect on plant growth (average projected rosette area over time)” value (Example 2, 0.5 mL treatment solution at 8 DAS, 10 μM Kresoxim-methyl or 10 μM 6-Benzylaminopurine, imaging 4-16 DAS, vs water control, FIG. 4) is listed as “shoot growth inhibition”.
`O=C(O)Cc1cccc2ccccc12` [NAA, 1-Naphthaleneacetic acid]: the “rosette size versus NAA concentration” value (Example 5, 0.8 mL at 7 and 10 DAS, 1, 10, 20, 100 μM NAA vs DMSO vehicle, imaging 4-14 DAS, FIG. 7B) was “The higher the concentration of NAA during the treatment, the smaller the rosette size”. Under “Example 5, rosette growth, concentration at which maximal inhibition was probably already reached”, this compound displayed a maximal inhibitory concentration not above 50 µM.
Consider `O=C(O)/C=C\c1ccccc1` [cis-CA, cis-cinnamic acid], for which, under “Example 6, 0.8 mL at 7 and 10 DAS, cis-CA 20, 50, 100 μM vs 0.1% DMSO, FIG. 8A”, the “effect on plant growth (rosette area) at higher concentration, dose response” value was “plant growth retarding effect”. Moreover, under “Example 6, 0.8 mL at 7 and 10 DAS, cis-CA at 1 (unit not given) vs 0.1% DMSO, FIG. 8A”, the “effect on plant growth (rosette area) at low concentration” value was “slightly positive effect”. Besides, the “toxicity for the plant at higher concentration” value (Example 6, cis-CA at higher concentration (20, 50, 100 μM), FIG. 8A) is given as “rather toxic for the plant”.
